Patent US6664286B1, “Serotonergic 5ht2 agonists for treating glaucoma” (Alcon Manufacturing, Ltd., priority 1998, dated 2003)
Where two headings read alike, the source gives them in different places.

Experiments:
[1] = system: lasered (hypertensive) eyes of conscious cynomolgus monkeys; test: Acute IOP Response in Lasered (Hypertensive) Eyes of Conscious Cynomolgus Monkeys; type: in vivo, cynomolgus monkey; conditions: topical, one 30 μL aliquot, dose (R)-DOI 100 μg, α-methylserotonin 250 μg, 5-methoxy-α-methyltryptamine 300 μg, serotonin 250 μg
Experimental: Acute IOP Response in Lasered (Hypertensive) Eyes of Conscious Cynomolgus Monkeys
Intraocular pressure (IOP) was determined with an Alcon Pneumatonometer after light corneal anesthesia with 0.1% proparacaine. Eyes were washed with saline after each measurement. After a baseline IOP measurement, test compound was instilled in one 30 μL aliquot to the right eyes only of nine cynomolgus monkeys. Vehicle was instilled in the right eyes of six additional animals. Subsequent IOP measurements were taken at 1, 3, and 6 hours.

5HT2 receptor = 5HT2 receptor (Rattus norvegicus, UniProt P14842); test: cell-based
Experimental: Confluent cells are exposed for 24-30 hrs to 1.5 μCi [^3H]-myo-inositol (18.3 Ci/mmol) in 0.5 ml of serum-free medium. Cells are then rinsed once with DMEM/F-12 containing 10 mM LiCl prior to incubation with the test agent (or solvent as the control) in 1.0 ml of the same medium for 1 hr at 37° C., after which the medium is aspirated and 1 ml of cold 0.1 M formic acid added to stop the reaction. […] The eluate (4 ml) is collected, mixed with 15 ml scintillation fluid, and the total [^3H]-IPs determined by scintillation counting on a beta-counter.

rabbit eye = conditions: cited from earlier work
glaucomatous monkeys = conditions: cited from earlier work
[2] = man, dosed systemically; cited from earlier work
human subjects = conditions: cited from earlier work
5HT2 receptor subtypes = conditions: 5HT2 agonist, rank order of subtypes; cited from earlier work
[3] = rabbit, administered intracamerally

Chain of 5HT2 receptor (P14842 whole entry): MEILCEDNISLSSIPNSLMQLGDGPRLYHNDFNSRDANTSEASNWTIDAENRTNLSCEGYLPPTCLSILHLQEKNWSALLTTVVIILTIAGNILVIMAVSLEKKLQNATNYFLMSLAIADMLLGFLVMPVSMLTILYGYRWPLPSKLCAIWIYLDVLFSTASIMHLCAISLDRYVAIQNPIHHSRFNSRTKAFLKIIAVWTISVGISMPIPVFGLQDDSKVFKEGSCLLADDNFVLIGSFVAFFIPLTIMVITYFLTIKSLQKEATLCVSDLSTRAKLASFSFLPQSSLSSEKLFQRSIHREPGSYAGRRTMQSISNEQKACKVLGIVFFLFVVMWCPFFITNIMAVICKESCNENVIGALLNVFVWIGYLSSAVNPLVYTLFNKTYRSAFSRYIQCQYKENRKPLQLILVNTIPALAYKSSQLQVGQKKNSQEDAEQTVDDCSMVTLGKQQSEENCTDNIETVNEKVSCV

## COc1ccc2[nH]cc(CC(C)N)c2c1 (stereo not drawn) [5-Methoxy-α-methyltryptamine, 5-methoxy-α-methyltryptamine]
[1]
  Percent IOP Reduction ± SEM, 1 hour after dose: 21.6 ± 5.05%
  Percent IOP Reduction ± SEM, 3 hours after dose: 35.2 ± 6.12%
  Percent IOP Reduction ± SEM, 6 hours after dose: 33.4 ± 5.39%
5HT2 receptor; A7R5, read-out: Efficacy (Emax, %)
  Emax: 107%

## NCCc1c[nH]c2ccc(C(N)=O)cc12 [5-carboxamidotryptamine]
Rabbit eye; rabbit, topically applied
  effect on intraocular pressure (IOP): raise intraocular pressure

## COc1ccccc1N1CCN(CCCNc2c(C)c(=O)n(C)c(=O)n2C)CC1 [5-methylurapidil]
Glaucomatous monkeys
  effect on IOP: lowered IOP

## CCCN(CCC)C1CCc2cccc(O)c2C1 (stereo not shown) [8-hydroxy DPAT]
Rabbit eye; rabbits, route not stated
  effect on IOP: lower IOP

## COc1cc(C[C@@H](C)N)c(OC)cc1I [(R)-DOI, (R)4-iodo-2,5 dimethoxy-α-methyl-benzeneethanamine]
[1]
  Percent IOP Reduction ± SEM, 1 hour after dose: 11.0 ± 4.98%
  Percent IOP Reduction ± SEM, 3 hours after dose: 25.3 ± 2.97%
  Percent IOP Reduction ± SEM, 6 hours after dose: 34.4 ± 4.98%
5HT2 receptor
  EC50: 0.277 ± 0.035 µM

## COc1cc(CC(C)N)c(OC)cc1I (stereo not shown) [DOI]
[2]
  CNS side effects: cause central nervous system (CNS) side effects

## O=C(c1ccc(F)cc1)C1CCN(CCn2c(=O)[nH]c3ccccc3c2=O)CC1 [Ketanserin]
Human subjects; man, route not stated
  effect on IOP: lowers IOP
Rabbit eye; rabbits, route not stated
  effect on IOP: lowers IOP

## c1ccc2c(c1)OC[C@H](CNCCCOc1ccc3c(c1)OCO3)O2 [MKC-242]
Rabbit eye; rabbits, route not stated
  effect on IOP: lower IOP

## CC[C@@H](CO)NC(=O)[C@@H]1C=C2c3cccc4c3c(cn4C)C[C@H]2N(C)C1 [Methysergide]
Rabbit eye; rabbits, route not stated
  effect on IOP: lowered IOP

## COc1cccc(CCc2ccccc2OCC(CN(C)C)OC(=O)CCC(=O)O)c1 (stereo not shown) [Saprogrelate]
Human subjects; man, dosed topically or orally
  effect on IOP: lowers IOP
Rabbit eye; rabbits, dosed topically or orally
  effect on IOP: lowers IOP

## NCCc1c[nH]c2ccc(O)cc12 [Serotonin, 5-hydroxytryptamine]
[1]
  Percent IOP Reduction ± SEM, 1 hour after dose: 13.3 ± 5.31%
  Percent IOP Reduction ± SEM, 3 hours after dose: 18.0 ± 5.12%
  Percent IOP Reduction ± SEM, 6 hours after dose: 2.0 ± 7.39%
Rabbit eye; [3]
  blood-aqueous barrier: caused breakdown of the blood-aqueous barrier
  effect on IOP: increase in IOP

## CNCCC(Oc1ccc(C(F)(F)F)cc1)c1ccccc1 (stereo not shown) [fluoxetine]
Human subjects; human subjects, oral administration
  effect on IOP: raises IOP

## CC(N)Cc1c[nH]c2ccc(O)cc12 (stereo not drawn) [α-Methylserotonin, α-methyl-serotonin]
[1]
  Percent IOP Reduction ± SEM, 1 hour after dose: 14.2 ± 4.39%
  Percent IOP Reduction ± SEM, 3 hours after dose: 25.8 ± 5.16%
  Percent IOP Reduction ± SEM, 6 hours after dose: 30.8 ± 7.72%
5HT2 receptor subtypes
  receptor subtype selectivity: 5HT2B>5HT2C>5HT2A
